{"source": "patent US6660255B1", "about": "“Inhibition of gene transcription by polyamide DNA-binding ligands” (California Institute of Technology, priority 1997, dated 2003)", "key": {"[1]": {"tested_on": "5′-AGTACT-3′ site adjacent to the LEF-1 binding site", "assay": "DNase footprint titration on HIV-1 enhancer/promoter fragment", "details": "mismatch polyamide", "description": "(§1) White, S., Baird, E. E. & Dervan, P. B. describes the pairing rules for recognition in the minor groove of DNA by pyrrole-imidazole polyamides. […] Labeled DNA was incubated with polyamide (45 minutes) and digested with DNase I under single-hit conditions.\n(§2) Regions of polyamide protection were determined by analysis of the digestion products on a 6% denaturing polyacrylamide sequencing gel. Storage phosphorimage analysis of the data was used to obtain dissociation constants for the binding reactions (using Kodak Storage Phosphor Screens and a Molecular Dynamics SF PhosphorImager). Recombinant human TBP (rhTBP) was obtained from Promega and was used in footprinting and gel mobility shift experiments as recommended. The reaction mixtures also contained 100 ng of poly dG-poly dC per 10 μL gel shift reaction or 50 μL footprinting reaction. For gel mobility shift assays, 6% polyacrylamide gels (20:1, acrylamide to bisacrylamide) contained 44 mM Tris-borate, pH 8.3, 1 mM EDTA, […] and 0.02% (v/v) NP-40. The same buffer was used for electrophoresis of 1 mm thick gels at 15 volts/cm for 2 hours at 4° C."}, "[2]": {"tested_on": "CMV major immediate early promoter", "assay": "CMV MIEP transcription in vitro (control template)", "format": "biochemical, human cytomegalovirus", "details": "H9/HeLa extract system", "description": "The effects of polyamides 1 and 2 on HIV-1 transcription were tested in an in vitro transcription assay with a HeLa cell nuclear extract (FIG. 21A). The effects of the polyamides on basal transcription by RNA polymerase II was monitored with a nuclear extract prepared from HeLa cells (J. D. Dignam, P. L. Martin, B. S. Shastry, R. G. Roeder, Describe eukaryotic gene transcription with purified components Meth. Enzymol. 101, 582 (1983)). The human lymphloid cell line H9 (ATCC HTB 176) was grown in suspension culture in RPMI medium (Bio Whittaker) supplemented with 10% fetal calf serum (Tissue Culture Biological). Whole cell extracts of H9 cells in log phase growth were prepared by hypotonic lysis and contained 20 mg/ml protein, as determined by the Bradford reaction. Run-off RNA transcripts of ˜300 bases (CMV MIEP linked to a guanine-less cassette, plasmid pEIB-GL and ˜500 bases (pHIV LTR-CAT) where obtained with EcoRI-digested plasmid DNA (100 ng per 25 μL reaction).\nPolyamide-DNA complexes were allowed to form at ambient temperature for 30 min prior to addition of the nuclear extract. […] RNA was purified by extraction with RNAzol (TelTest, Friendswood, Tex.) and analyzed by electrophoresis on a denaturing (8.3 M urea) 6% polyacrylamide gel. […]"}, "[3]": {"tested_on": "5′-WGCWGCW-3′ sequences adjacent to the HIV-1 TATA element", "assay": "DNase I footprint titration at sites flanking the HIV-1 TATA element", "format": "binding", "description": "The recognition sites for polyamide HIV-1 are of the form 5′-WGCWGCW-3″ (where W=A or T).\nas §1, §2"}, "[4]": {"tested_on": "rhTBP binding to the HIV-1 TATA element", "assay": "DNase I footprinting, inhibition of TBP binding to HIV-1 LTR fragment", "design": "species or system human", "description": "as §2"}, "[5]": {"tested_on": "TBP binding to the TATA box region of the adenovirus major late promoter", "assay": "Gel mobility shift, TBP binding to adenovirus major late promoter TATA box", "design": "species or system human", "details": "mismatch flanking sequences", "description": "as §2"}, "[6]": {"tested_on": "wild-type HIV-1 promoter", "assay": "HIV-1 transcription in vitro with lymphoid cell nuclear extract", "format": "biochemical", "details": "read-out: polyamide concentration for fifty percent inhibition of HIV-1 transcription", "description": "The recognition sites for polyamide HIV-1 are of the form 5′-WGCWGCW-3″ (where W=A or T). Since a pyrrole-pyrrole pair can recognize either an A-T base pair or a T-A base pair, polyamide HIV-1 will recognize both the 5′ and 3′ flanking sequences of the HIV-1 TATA element. […] This concentration corresponds to only a 16-fold excess of polyamide over specific binding sites in the HIV-1 plasmid DNA (3 nM)."}, "[7]": {"tested_on": "HIV-1 strain WEAU1.6", "assay": "HIV-1 replication in human PBMC, p24 ELISA", "format": "cell-based", "details": "mismatch controls, alone or in combination", "protocol": "PBMC were infected with the T cell-tropic HIV-1 strain WEAU1.6, or the macrophage-tropic strain SF162. […] Polyamides were added to the culture medium and the levels of HIV-1 p24 viral capsid protein in the culture media were determined on subsequent days using a standard ELISA assay.\nHuman PBMC were separated from whole blood collected from normal adult volunteers by density gradient centrifugation as described. […] Human PBMC were activated with 2 μg/mL PHA and 20 units/mL of IL-2 for 2-3 days prior to HIV-1 infection. […] Free virus was removed by washing the cells in medium, and polyamides added to the culture. […] Virus replication in culture was measured by HIV-1 p24 viral capsid antigen ELISA (DuPont Medical Products, Boston, Mass.).\nPBMC cultures were infected with the primary HIV-1 isolate WEAU 1.6 (kindly provided by G. Shaw), and virus replication measured by release of p24 capsid antigen into the medium that was detected by antibody-capture ELISA (Dupont). Each experiment involved a separate PBMC donor."}, "[8]": {"tested_on": "Ets-1 ΔN331/DNA complex", "assay": "Gel mobility shift, Ets-1 binding to HIV-1 enhancer oligonucleotide"}, "[9]": {"tested_on": "5′-AGTGAA-3′ within the IE86 binding site", "design": "species or system human cytomegalovirus", "details": "1-200 nM", "description": "These compounds together with purified recombinant IE86 protein were used in DNase I footprint experiments with a singly end-labeled restriction fragment derived from the CMV major immediate early promoter. […] A singly-end labeled restriction fragment was used in DNase I footprinting reactions. […] Lanes 1 and 18 represent a G+A sequencing ladder. […] The location of the TATA box and the start of transcription are indicated."}}, "data": [{"molecule": "CN(C)CCCNC(=O)CCNC(=O)c1cc(NC(=O)c2nc(NC(=O)CCNC(=O)c3cc(NC(=O)c4nc(NC(=O)CCCNC(=O)c5cc(NC(=O)c6nc(NC(=O)CCNC(=O)c7cc(NC(=O)c8nccn8C)cn7C)cn6C)cn5C)cn4C)cn3C)cn2C)cn1C", "note": "[polyamide 4, ImPy-β-ImPy-γ-ImPy-β-ImPy-β-Dp]", "values": [{"measurement": "fold reduced affinity for the 5′-AGTACT-3′ sequence", "setting": "[1]", "value": "> 100", "unit": "fold"}, {"measurement": "inhibition of CMV transcription", "setting": "[2]", "value": "fails to inhibit"}, {"measurement": "Ka", "setting": "[3]; HIV-1 TATA box region", "value": "2e+10", "unit": "M⁻¹"}, {"measurement": "fold reduced affinity relative to the match polyamide", "setting": "[3]; mismatch control polyamide", "value": 100, "unit": "fold"}, {"measurement": "Kd", "setting": "[3]; sites flanking the TATA element, 5′-AGCTGCA-3′ / 5′-TGCTGCA-3′, read-out: apparent/equilibrium dissociation constant (Kd)", "value": 0.05, "unit": "nM"}, {"measurement": "inhibition of TBP binding to the HIV-1 TATA element", "setting": "[4]; DNase I footprinting, 2.5-10 nM polyamide", "value": "inhibited"}, {"measurement": "polyamide concentration at which TBP binding is inhibited", "setting": "[4]; five-fold excess of polyamide over DNA binding sites", "value": 2.5, "unit": "nM"}, {"measurement": "inhibition of TBP binding to adenovirus major late promoter TATA box", "setting": "[5]", "value": "did not inhibit"}, {"measurement": "IC50", "setting": "[6]", "value": "~50", "unit": "nM"}, {"measurement": "effect on the level of virus in the medium", "setting": "[7]", "value": "had no effect"}, {"measurement": "effect on Ets-1 DNA-binding / complex formation", "setting": "[8]; polyamide preincubated with oligonucleotide, 100-400 nM", "value": "did not prevent"}, {"measurement": "effect on complex formation in the same concentration range", "setting": "[8]; titration, mismatch polyamide", "value": "virtually no effect"}, {"measurement": "footprint on the CMV fragment", "setting": "[9]", "value": "did not give a footprint"}]}]}
